Measurements reported in US20240269139A1, “COMPOUNDS FOR TARGETED PROTEIN DEGRADATION OF KINASES” (DANA-FARBER CANCER INSTITUTE, INC., priority 2020, published 2024).
Read-outs that look alike come from different tables or passages of the source.

Assays:
Assay type in all cases: cell-based
[1] = biological target: T1, protein kinases (human kinome) (Homo sapiens, UniProt Q53H12); conditions: direction down
T1 sequence (Q53H12 1-422): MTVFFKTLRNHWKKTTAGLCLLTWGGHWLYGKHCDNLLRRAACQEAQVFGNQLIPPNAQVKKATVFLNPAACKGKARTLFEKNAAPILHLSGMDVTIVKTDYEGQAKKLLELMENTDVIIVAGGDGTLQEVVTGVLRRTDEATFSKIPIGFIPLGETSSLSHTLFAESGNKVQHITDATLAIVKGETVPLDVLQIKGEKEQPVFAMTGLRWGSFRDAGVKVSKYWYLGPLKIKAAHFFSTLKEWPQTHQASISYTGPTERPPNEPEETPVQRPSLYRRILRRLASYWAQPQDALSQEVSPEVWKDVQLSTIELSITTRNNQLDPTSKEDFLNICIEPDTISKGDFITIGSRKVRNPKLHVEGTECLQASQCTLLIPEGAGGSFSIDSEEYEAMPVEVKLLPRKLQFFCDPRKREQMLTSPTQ

[2] = biological target: protein kinases (human kinome) (Homo sapiens, UniProt Q00535); conditions: for logFC of CDK5: Accession Q00535
[3] = biological target: protein kinases (human kinome) (Homo sapiens, UniProt Q13233)
Sequence of protein kinases (human kinome) (Homo sapiens, UniProt Q13233) (Q13233 whole entry): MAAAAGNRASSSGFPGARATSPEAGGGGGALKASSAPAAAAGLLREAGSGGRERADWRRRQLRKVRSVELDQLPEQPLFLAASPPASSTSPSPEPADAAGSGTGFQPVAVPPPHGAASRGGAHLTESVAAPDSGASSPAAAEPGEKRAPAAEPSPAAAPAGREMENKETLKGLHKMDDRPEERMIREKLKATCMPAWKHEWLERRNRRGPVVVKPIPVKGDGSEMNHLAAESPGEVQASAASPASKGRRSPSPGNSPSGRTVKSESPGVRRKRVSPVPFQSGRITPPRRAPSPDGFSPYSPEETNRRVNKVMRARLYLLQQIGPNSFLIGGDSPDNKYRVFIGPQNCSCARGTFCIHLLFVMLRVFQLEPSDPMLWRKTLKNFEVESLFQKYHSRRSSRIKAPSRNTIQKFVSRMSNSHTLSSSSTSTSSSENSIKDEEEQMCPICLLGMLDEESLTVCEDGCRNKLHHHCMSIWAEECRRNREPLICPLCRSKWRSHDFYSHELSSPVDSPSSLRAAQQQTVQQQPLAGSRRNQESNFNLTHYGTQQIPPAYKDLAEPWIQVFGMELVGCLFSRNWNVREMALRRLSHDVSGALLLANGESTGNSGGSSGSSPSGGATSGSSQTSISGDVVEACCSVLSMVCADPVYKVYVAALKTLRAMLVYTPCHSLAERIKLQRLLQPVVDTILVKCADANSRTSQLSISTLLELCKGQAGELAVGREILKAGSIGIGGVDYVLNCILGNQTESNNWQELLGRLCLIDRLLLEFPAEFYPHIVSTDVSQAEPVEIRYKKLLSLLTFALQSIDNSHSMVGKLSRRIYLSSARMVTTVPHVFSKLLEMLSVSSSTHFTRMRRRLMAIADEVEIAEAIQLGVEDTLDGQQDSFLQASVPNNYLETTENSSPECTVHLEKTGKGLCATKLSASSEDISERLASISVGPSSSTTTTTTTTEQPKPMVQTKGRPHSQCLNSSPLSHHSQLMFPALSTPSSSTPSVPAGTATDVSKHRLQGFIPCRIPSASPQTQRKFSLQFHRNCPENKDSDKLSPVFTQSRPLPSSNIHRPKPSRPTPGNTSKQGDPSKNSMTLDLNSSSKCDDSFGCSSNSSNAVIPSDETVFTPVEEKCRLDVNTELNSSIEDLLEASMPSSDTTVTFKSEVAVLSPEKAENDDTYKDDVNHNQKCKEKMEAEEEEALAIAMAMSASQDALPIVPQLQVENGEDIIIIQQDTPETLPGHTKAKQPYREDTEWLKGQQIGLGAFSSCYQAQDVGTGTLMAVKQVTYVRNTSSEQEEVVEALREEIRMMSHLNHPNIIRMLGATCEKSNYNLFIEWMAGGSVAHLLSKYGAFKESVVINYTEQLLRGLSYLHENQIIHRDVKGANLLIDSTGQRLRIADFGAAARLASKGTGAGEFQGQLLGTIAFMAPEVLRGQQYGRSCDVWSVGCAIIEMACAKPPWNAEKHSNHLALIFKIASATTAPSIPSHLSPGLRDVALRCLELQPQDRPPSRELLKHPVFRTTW

Sequence of protein kinases (human kinome) (Homo sapiens, UniProt Q00535) (Q00535 whole entry): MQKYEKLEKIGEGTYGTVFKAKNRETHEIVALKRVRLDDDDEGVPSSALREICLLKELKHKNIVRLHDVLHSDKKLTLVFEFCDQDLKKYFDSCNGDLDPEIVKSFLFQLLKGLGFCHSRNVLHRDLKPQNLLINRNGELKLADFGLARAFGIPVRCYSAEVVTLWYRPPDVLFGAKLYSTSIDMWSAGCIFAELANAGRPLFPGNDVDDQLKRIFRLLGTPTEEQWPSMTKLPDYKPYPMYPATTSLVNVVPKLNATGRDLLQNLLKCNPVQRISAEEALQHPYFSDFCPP

In the case of CNC(=O)c1ccccc1Nc1cc(Nc2ccc(N3CCN(CCOCCOCCNC(=O)CNc4cccc5c4C(=O)N(C4CCC(=O)NC4=O)C5=O)CC3)cc2OC)ncc1C(F)(F)F (centres unmarked) [MFH.5.103.1], the “logFC AGK (Q53H12)” value ([1]; Experiment wp076) is reported as −0.3672.

With CC(=O)c1c(C)c2cnc(Nc3ccc(N4CCN(CCOCCOCCOCCNC(=O)COc5cccc6c5C(=O)N(C5CCC(=O)NC5=O)C6=O)CC4)cn3)nc2n(C2CCCC2)c1=O (centres unmarked) [BSJ.03.123] the “logFC AGK (Q53H12)” value ([1]; Experiment wp084) was −0.6506.

For O=C(COc1cccc2c1C(=O)N(C1CCC(=O)NC1=O)C2=O)NCCCCCCCC(=O)NC1(c2ccc(-c3nc4ccn5c(=O)[nH]nc5c4cc3-c3ccccc3)cc2)CCC1 (centres unmarked) [INY.01.140.1], the “logFC AGK (Q53H12)” value ([1]; Experiment wp081) was −0.4936.

Nc1ncnc2c1c(-c1ccc(Oc3ccccc3)cc1)nn2[C@H]1CC[C@H](N2CCN(CCOCCNC(=O)CNc3cccc4c3C(=O)N(C3CCC(=O)NC3=O)C4=O)CC2)CC1 (some centres unmarked) [SB1.G.181] was tested, and the “logFC AGK (Q53H12)” value ([1]; Experiment wp071) was −0.3991.

With Cc1cnc(Nc2ccc(N3CCN(CCOCCOCCNC(=O)COc4cccc5c4C(=O)N(C4CCC(=O)NC4=O)C5=O)CC3)cc2)nc1Nc1cccc(S(=O)(=O)NC(C)(C)C)c1 (centres unmarked) [JWG.118] the “logFC AGK (Q53H12)” value ([1]; Experiment wp071) was −0.5599.

With CC(C)(C)c1nc(-c2cccc(NS(=O)(=O)c3c(F)cccc3F)c2F)c(-c2ccnc(NCCOCCNC(=O)CCOCCOCCNc3cccc4c3C(=O)N(C3CCC(=O)NC3=O)C4=O)n2)s1 (centres unmarked) [DD.03.106] the “logFC AGK (Q53H12)” value ([1]; Experiment wp147, 2 uM) was −0.346 and the “logFC AGK (Q53H12)” value ([1]; Experiment wp147, 4 uM) was −0.9499.

C=CCn1c(=O)c2cnc(Nc3ccc(N4CCN(CCCNc5cccc6c5C(=O)N(C5CCC(=O)NC5=O)C6=O)CC4)cc3)nc2n1-c1cccc(C(C)(C)O)n1 (centres unmarked) [ZNL.02.096] was tested, and the “logFC AGK (Q53H12)” value ([1]; Experiment wp056) was −0.5514.

Cc1ccc(C(=O)Nc2ccc(CN3CCN(CCCOCCOCCOCCNC(=O)COc4cccc5c4C(=O)N(C4CCC(=O)NC4=O)C5=O)CC3)c(C(F)(F)F)c2)cc1C#Cc1cnc2cccnn12 (centres unmarked) [SB1.G.187] was tested, and the “logFC AGK (Q53H12)” value ([1]; Experiment wp056) was −0.5707, the “logFC of CDK5” value ([2]; experiment wp056) was −0.4804 and the “logFC of CDK5” value ([2]; experiment wp103) was −0.5924. For the same compound, the “logFC of CDK5” value ([2]; experiment wp105) was −0.6053, the “logFC CDK5 (Q00535)” value ([2]; Experiment wp105, direction of change down) was −0.6053 and the “logFC CDK5 (Q00535)” value ([2]; Experiment wp107) was −0.6778. The “logFC CDK5 (Q00535)” value ([2]; Experiment wp172) was −0.8938, the “logFC CDK5 (Q00535)” value ([2]; experiment wp056, direction of change down) was −0.4804 and the “logFC CDK5 (Q00535)” value ([2]; experiment wp103, direction of change down) was −0.5924. The “logFC CDK5 (Q00535)” value ([2]; experiment wp107, direction of change down) was −0.6778, the “logFC CDK5 (Q00535)” value ([2]; experiment wp172, direction of change down) was −0.8938 and the “logFC MAP3K1” value ([3]; Accession Q13233, experiment wp056, direction down) was −0.7809. For the same compound, the “logFC MAP3K1” value ([3]; Accession Q13233, experiment wp103, direction down) was −0.5815, the “logFC MAP3K1” value ([3]; Accession Q13233, experiment wp107, direction down) was −0.6693 and the “logFC MAP3K1” value ([3]; MAP3K1 (Q13233), experiment wp056) was −0.7809. The “logFC MAP3K1” value ([3]; MAP3K1 (Q13233), experiment wp103) was −0.5815 and the “logFC MAP3K1” value ([3]; MAP3K1 (Q13233), experiment wp107) was −0.6693.

In the case of CN(C)C(=O)c1cc2cnc(Nc3ccc(N4CCN(CCCCNC(=O)COc5cccc6c5C(=O)N(C5CCC(=O)NC5=O)C6=O)CC4)cn3)nc2n1C1CCCC1 (centres unmarked) [BSJ.04.132], the “logFC AGK (Q53H12)” value ([1]; Experiment wp084) is reported as −0.6709.

CC(C)(C)c1nc(-c2cccc(NS(=O)(=O)c3c(F)cccc3F)c2F)c(-c2ccnc(NCCOCCNC(=O)CCOCCOCCNc3cccc4c3CN(C3CCC(=O)NC3=O)C4=O)n2)s1 (centres unmarked) [DD.03.107] was tested, and the “logFC AGK (Q53H12)” value ([1]; Experiment wp147, 1 uM) was −0.7983, the “logFC AGK (Q53H12)” value ([1]; Experiment wp147, 2 uM) was −0.8655 and the “logFC AGK (Q53H12)” value ([1]; Experiment wp147, 4 uM) was −1.343.
